Values of other authors in patent US8461086B2, “Microcapsule composition for inhibiting an ethylene response in plants, method for preparing microcapsules, and method using the microcapsule composition” (Lytone Enterprise, Inc., priority 2009, dated 2013).

Experiments:
humans and livestock = details: within the effective concentration range
plants = details: applied to plants

## CC1=CC1 [Example 1-MCP, 1-methylcyclopropene]
Humans and livestock
  harm to humans and livestock: does no harm
plants
  effective dosages: 0.1 to 1.0 ppm (vol/vol)
